# Patent US5710126A, “T cell epitopes of ryegrass pollen allergen” (ImmuLogic Pharmaceutical Corporation, priority 1995, dated 1998)
# System: T cell lines from grass-allergic patients primed in vitro with affinity purified Lol p V
# Assay: T cell proliferation (tritiated thymidine uptake) of Lol p V-primed T cell lines restimulated with peptides or proteins
# Format: cell-based, human
# Details: for mean T cell stimulation index (S.I.): mean of positive responses (S.I. at least 2), FIGS. 4 and 5
# From the text: As discussed in Example 2, human T cell stimulating activity can be tested by culturing T cells obtained from an individual sensitive to Lol p V allergen, (i.e., an individual who has an IgE mediated immune response to Lol p V allergen) with a peptide derived from the allergen and determining whether proliferation of T cells occurs in response to the peptide as measured, e.g., by cellular uptake of tritiated thymidine. Stimulation indices for responses by T cells to peptides can be calculated as the maximum CPM in response to a peptide divided by the control CPM. A stimulation index (S.I.) equal to or greater than two times the background level is considered "positive". Positive results are used to calculate the mean stimulation index for each peptide for the group of patients tested. In FIGS. 4 and 5 the mean T cell stimulation index is indicated above the bar. Preferred peptides of this invention comprise at least one T cell epitope and have a mean T cell stimulation index of greater than or equal to 2.0. A peptide having a mean T cell stimulation index of greater than or equal to 2.0 in a significant number of ryegrass pollen sensitive patients tested is considered useful as a therapeutic agent. Preferred peptides have a mean T cell stimulation index of at least 2.5, more preferably at least 3.0, more preferably at least 3.5, more preferably at least 4.0, more preferably at least 5.0 and most preferably at least about 6. For example, peptides of the invention having a mean T cell stimulation index of at least 5, as indicated by data shown in FIGS. 4 and 5, include peptides LPIX-4 (SEQ ID NO:6), LPIX-5 (SEQ ID NO:7), LPIX-8 (SEQ ID NO:10) LPIX-17 (SEQ ID NO:19) and LPIX-19 (SEQ ID NO:21).
# In addition, preferred peptides have a positivity index (P.I.) of at least about 60, more preferably about 100, more preferably at least about 200 and most preferably at least about 300. The positivity index for a peptide is determined by multiplying the mean T cell stimulation index by the percent of individuals, in a population of individuals sensitive to ryegrass pollen (e.g., preferably a population of at least 15 individuals,more preferably a population of at least 30 individuals or more), who have a T cell stimulation index to such peptide of at least 2.0. Thus, the positivity index represents both the strength of a T cell response to a peptide (S.I.) and the frequency of a T cell response to a peptide in a population of individuals sensitive to ryegrass pollen. In FIG. 4, the bar represents the positivity index and the percent of individuals tested who have a T cell stimulation index of at least 2.0 to that peptide are indicated in parenthesis above each bar (the mean T cell stimulation index is also indicated above each bar). […] Lol p V peptides having a positivity index of at least about 100 and a mean T cell stimulation index of at least about 4 include: LPIX-4 (SEQ ID NO:6), LPIX-5 (SEQ ID NO:7), and LPIX-17 (SEQ ID NO:19).
# In FIG. 5, the bar represents the cumulative rank of the peptide response in the group of patients tested as described in Example 2. To determine the cumulative rank, the 5 peptides with the highest S.I. in each individual were determined and assigned a numerical rank in descending order, with 5 representing the strongest response. The ranks for each peptide were then summed for the entire group of patients tested to determine the cumulative rank for the peptide. Above each bar is the mean S.I. for each peptide and the percent of positive responses (in parenthesis) with an S.I. of at least 2 to the peptide in the group of patients tested.
# This amount of priming antigen was determined to be optimal for the activation of T cells from most grass-allergic patients. Viable cells were purified by LSM centrifugation and cultured in complete medium, supplemented with 5 units recombinant human IL-2/ml and 5 units recombinant human IL-4/ml for up to 3 weeks until the desired cell number were achieved. […]
Substance,"positivity index (P.I.; % of patients responding multiplied by mean S.I.) (19 patients, FIG. 4)",mean T cell stimulation index (S.I.) (19 patients),also measured
"LPIX-4: synthetic overlapping peptide derived from Lol p V, sequence shown in FIG. 2 (EQKLLEDVNAGFKAAVAAAA)",at least 100,–,–
"LPIX-5: synthetic overlapping peptide derived from Lol p V, sequence shown in FIG. 2 (GFKAAVAAAANAPPADKFKI)",–,–,"percent of positive responses (patients with S.I. of at least 2.0) (group of 19 patients tested, FIG. 4): 26.3%"
"LPIX-8: synthetic overlapping peptide derived from Lol p V, sequence shown in FIG. 2 (GLLATSAAKAPGLIPKLDTA)",–,at least 5,–
"LPIX-17: synthetic overlapping peptide derived from Lol p V, sequence shown in FIG. 2 (ATAANAAPTNDKFTVFESAF)",at least 100,–,–
"LPIX-19: synthetic overlapping peptide derived from Lol p V, sequence shown in FIG. 2 (NKALNECTGGAYETYKFIPS)",–,at least 5,–
"LPIX-20: synthetic overlapping peptide derived from Lol p V, sequence shown in FIG. 2 (AYETYKFIPSLEAAVKQAYA)",–,–,"ranked sum (cumulative rank of the peptide response) (19 patients, 5 highest S.I. per individual ranked and summed, FIG. 5): highest ranked sum"
